Test results published in US4229528A, “Fluorescence method for enzyme analysis which couples aromatic amines with aromatic aldehydes” (priority 1978, dated 1980).

Test system: arylamidase activity
Experiment: Inhibitory effect of 5NSA on arylamidase activity (initial hydrolytic rates with and without added 5NSA)
Format: biochemical
Text: At 10 mmol/liter, 50% inhibition of all enzyme activities occurs. Interfering side reactions with 5NSA may occur. The compound reacts with both aliphatic and aromatic amine groups to form Schiff-Base complexes. Particularly susceptible are proteins containing lysine and glutamine. […] Cell proteins react at higher concentrations, i.e., above 1 mmol/liter of 5NSA, to form a blue-green fluorescence, which may account for as much as 15% of the cellular fluorescence at 530 nm. Use of appropriate filters to block out green fluorescence will block out the nonspecific cell protein reaction with 5NSA.

[1] = 1 mmol/liter 5NSA, initial hydrolytic rate with vs without 5NSA

For `O=Cc1cc([N+](=O)[O-])ccc1O` [5NSA, 5-nitrosalicylaldehyde], the “Effect on Carbobenzoxy-arg-arg-4M2NA hydrolysis” value [1] was “not affected significantly”, the “Effect on Lys-Ala-4M2NA activity” value [1] was “not affected significantly” and the “inhibition of all enzyme activities” value (10 mmol/liter 5NSA) was 50%.
